This series can be described thus: Body weight gain-reducing action in KKAy mice. The conditions noted are these: female KKAy mice; for % control (blood glucose level): in admixture with the feed for 4 days, blood glucose relative to own control group = 100.

In the case of `Cc1oc(-c2ccccc2)nc1COc1ccc(CO/N=C(\CCC(=O)O)c2ccccc2)cc1` [compound of Production Example 3, E-4-[4-(5-methyl-2-phenyl-4-oxazolylmethoxy)benzyloxyimino]-4-phenylbutyric acid], the “% control (blood glucose level)” value was 50%.

In the case of `CN(CCOc1ccc(CC2SC(=O)NC2=O)cc1)c1ccccn1` (stereo not drawn) [rosiglitazone], the “% control (blood glucose level)” value was found to be 58%. The “effect on body weight (in words)” value (4 days, dose that reduced the blood glucose level to 50-58%) is recorded as “significantly increased the body weight”.

These data come from US20050239854A1, “Body weight gain inhibitors” (priority 1999, published 2005).
